According to patent US11981686B2, “Urea compound having substituent” (DAIICHI SANKYO COMPANY, LIMITED, priority 2019, dated 2024):

target: SIRT6 enzyme (Homo sapiens, UniProt Q8N6T7); assay: Measurement of deacetylation activity (SIRT6, AlphaLISA, H3K9(Ac) peptide); format: biochemical; conditions: SIRT6 25 ng/mL, H3K9(Ac) biotin peptide 2 nM, NAD 10 μM, room temperature 30 minutes, duplicate
Summary of the method: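 Activation read as EC150, the concentration giving 150% activity relative to enzyme/no-enzyme DMSO controls, via variable-slope fit. Deacetylation of 2 nM biotinylated H3K9(Ac) peptide with 10 μM NAD+ by 25 ng/mL SIRT6 ran 30 min at room temperature, pH 8.0, then AlphaLISA detection of unmodified H3K9.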

SIRT6 enzyme, sequence (Q8N6T7 whole entry, species assumed): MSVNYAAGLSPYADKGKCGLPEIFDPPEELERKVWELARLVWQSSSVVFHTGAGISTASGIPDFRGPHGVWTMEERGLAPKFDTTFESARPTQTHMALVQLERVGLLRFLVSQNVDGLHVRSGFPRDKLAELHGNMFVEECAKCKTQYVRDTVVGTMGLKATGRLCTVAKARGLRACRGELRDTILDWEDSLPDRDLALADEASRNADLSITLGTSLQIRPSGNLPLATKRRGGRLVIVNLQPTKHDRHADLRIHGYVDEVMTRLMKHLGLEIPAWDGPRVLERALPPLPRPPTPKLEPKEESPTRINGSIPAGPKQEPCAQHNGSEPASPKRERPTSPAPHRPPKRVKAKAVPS

Structure (SMILES)	EC150 (the concentration of the compound showing a relative enzyme activity of 150%)
CNC(=O)Nc1nc2c(s1)C1COCC(C2)N1c1nc(-c2cccc(C(=O)C3CC3)c2)no1 (stereo not drawn) [Example 112, N-(10-{3-[3-(cyclopropanecarbonyl)phenyl]-1,2,4-oxadiazol-5-yl}-4,7,8,9-tetrahydro-5H-4,8-epiminooxocino[5,4-d][1,3]thiazol-2-yl)-N′-methylurea]	1.4 μm
C[C@H](CO)NC(=O)Nc1nc2c(s1)CN(c1nc(C(C)(C)OCC(F)(F)F)no1)CC2 [Example 91, N-[(2R)-1-hydroxypropan-2-yl]-N′-(5-{3-[2-(2,2,2-trifluoroethoxy)propan-2-yl]-1,2,4-oxadiazol-5-yl}-4,5,6,7-tetrahydro[1,3]thiazolo[5,4-c]pyridin-2-yl)urea]	0.81 μm
O=C(NCC(F)(F)F)Nc1nc2c(s1)C1COCC(C2)N1c1nnc(-c2cccc(C(=O)C3CC3)c2)o1 (stereo not drawn) [Example 114]	2.4 μm
CNC(=O)Nc1nc2c(s1)[C@@H]1COC[C@H](C2)N1c1nnc(-c2cccc(OC(F)F)c2)o1 [Example 22, N-[(4S,8S)-10-{5-[3-(difluoromethoxy)phenyl]-1,3,4-oxadiazol-2-yl}-4,7,8,9-tetrahydro-5H-4,8-epiminooxocino[5,4-d][1,3]thiazol-2-yl]-N′-methylurea]	1.3 μm
CC(=O)N1CC(NC(=O)Nc2nc3c(s2)[C@@H]2COC[C@H](C3)N2c2ncc(-c3cccc(OC(F)F)n3)o2)C1 [Example 183, N-(1-acetylazetidin-3-yl)-N′-[(4S,8S)-10-{5-[6-(difluoromethoxy)pyridin-2-yl]-1,3-oxazol-2-yl}-4,7,8,9-tetrahydro-5H-4,8-epiminooxocino[5,4-d][1,3]thiazol-2-yl]urea]	0.24 μm
COc1cc2nc(N3[C@@H]4COC[C@H]3c3sc(NC(=O)NCC(C)(C)O)nc3C4)oc2cc1C [Example 44, N-(2-hydroxy-2-methylpropyl)-N′-[(4S,8S)-10-(5-methoxy-6-methyl-1,3-benzoxazol-2-yl)-4,7,8,9-tetrahydro-5H-4,8-epiminooxocino[5,4-d][1,3]thiazol-2-yl]urea]	2.3 μm
COc1cccc(-c2cnc(N3[C@@H]4COC[C@H]3c3sc(NC(=O)N[C@H]5CC[C@H](O)CC5)nc3C4)o2)n1 [Example 188, N-[(1r,4r)-4-hydroxycyclohexyl]-N′-{(4S,8S)-10-[5-(6-methoxypyridin-2-yl)-1,3-oxazol-2-yl]-4,7,8,9-tetrahydro-5H-4,8-epiminooxocino[5,4-d][1,3]thiazol-2-yl}urea]	0.4 μm
COc1cccc(-c2cnc(N3[C@@H]4COC[C@H]3c3sc(NC(=O)N[C@H]5C[C@H](O)C5)nc3C4)o2)n1 [Example 78, N-[(1r,3S)-3-hydroxycyclobutyl]-N′-{(4S,8S)-10-[5-(6-methoxypyridin-2-yl)-1,3-oxazol-2-yl]-4,7,8,9-tetrahydro-5H-4,8-epiminooxocino[5,4-d][1,3]thiazol-2-yl}urea]	0.41 μm
C[C@@H](O)CNC(=O)Nc1nc2c(s1)[C@@H]1COC[C@H](C2)N1c1ncc(-c2cccc(C(F)F)c2)o1 [Example 72, N-[(4S,8S)-10-{5-[3-(difluoromethyl)phenyl]-1,3-oxazol-2-yl}-4,7,8,9-tetrahydro-5H-4,8-epiminooxocino[5,4-d][1,3]thiazol-2-yl]-N′-[(2R)-2-hydroxypropyl]urea]	0.36 μm
C[C@H](CO)NC(=O)Nc1nc2c(s1)[C@@H]1COC[C@H](C2)N1c1nc2cc(F)ccc2o1 [Example 39, N-[(4S,8S)-10-(5-fluoro-1,3-benzoxazol-2-yl)-4,7,8,9-tetrahydro-5H-4,8-epiminooxocino[5,4-d][1,3]thiazol-2-yl]-N′-[(2R)-1-hydroxypropan-2-yl]urea]	2.5 μm
CNC(=O)Nc1nc2c(s1)C1CN(C(=O)OC)CC(C2)N1c1nc(C23CCC(F)(CC2)C3)no1 (stereo not drawn) [Example 133, Methyl 10-[3-(4-fluorobicyclo[2.2.1]heptan-1-yl)-1,2,4-oxadiazol-5-yl]-2-[(methylcarbamoyl)amino]-4,7,8,9-tetrahydro-4,8-epimino[1,3]thiazolo[5,4-d]azocin-6(5H)-carboxylate]	1.4 μm
CN(C)c1ccc2oc(N3[C@@H]4COC[C@H]3c3sc(NC(=O)NCC(C)(C)O)nc3C4)nc2c1 [Example 41, N-{(4S,8S)-10-[5-(dimethylamino)-1,3-benzoxazol-2-yl]-4,7,8,9-tetrahydro-5H-4,8-epiminooxocino[5,4-d][1,3]thiazol-2-yl}-N′-(2-hydroxy-2-methylpropyl)urea]	2.5 μm
CNC(=O)Nc1nc2c(s1)C1COCC(C2)N1c1ncc(-c2cccc(C(=O)C3CC3)c2F)o1 (stereo not drawn) [Example 116, N-(10-{5-[3-(cyclopropanecarbonyl)-2-fluorophenyl]-1,3-oxazol-2-yl}-4,7,8,9-tetrahydro-5H-4,8-epiminooxocino[5,4-d][1,3]thiazol-2-yl)-N′-methylurea]	3.1 μm
C[C@@H](O)CNC(=O)Nc1nc2c(s1)[C@@H]1COC[C@H](C2)N1c1ncc(-c2cccc(OC(F)F)c2)o1 [Example 171, N-[(4S,8S)-10-{5-[3-(difluoromethoxy)phenyl]-1,3-oxazol-2-yl}-4,7,8,9-tetrahydro-5H-4,8-epiminooxocino[5,4-d][1,3]thiazol-2-yl]-N′-[(2R)-2-hydroxypropyl]urea]	0.55 μm
O=C(Nc1nc2c(s1)[C@@H]1COC[C@H](C2)N1c1ncc(-c2cccc(OC(F)F)n2)o1)NC1CCS(=O)(=O)CC1 [Example 180, N-[(4S,8S)-10-{5-[6-(difluoromethoxy)pyridin-2-yl]-1,3-oxazol-2-yl}-4,7,8,9-tetrahydro-5H-4,8-epiminooxocino[5,4-d][1,3]thiazol-2-yl]-N′-(1,1-dioxo-1λ^6 thian-4-yl)urea]	0.14 μm
CNC(=O)Nc1nc2c(s1)CN(c1nc(C34CCC(F)(CC3)C4)no1)CC2 [Example 93, N-{5-[3-(4-fluorobicyclo[2.2.1]heptan-1-yl)-1,2,4-oxadiazol-5-yl]-4,5,6,7-tetrahydro[1,3]thiazolo[5,4-c]pyridin-2-yl}-N′-methylurea]	0.7 μm
CC(C)(O)CNC(=O)Nc1nc2c(s1)[C@@H]1COC[C@H](C2)N1c1nc2cc(C(F)F)ccc2o1 [Example 53, N-{(4S,8S)-10-[5-(difluoromethyl)-1,3-benzoxazol-2-yl]-4,7,8,9-tetrahydro-5H-4,8-epiminooxocino[5,4-d][1,3]thiazol-2-yl}-N′-(2-hydroxy-2-methylpropyl)urea]	0.29 μm
O=C(Nc1nc2c(s1)CN(c1nc(C3CC(F)(F)CCO3)no1)CC2)N[C@@H]1CCOC1 (stereo partly drawn) [Example 95, N-{5-[3-(4,4-difluorooxan-2-yl)-1,2,4-oxadiazol-5-yl]-4,5,6,7-tetrahydro[1,3]thiazolo[5,4-c]pyridin-2-yl}-N′-[(3R)-oxolan-3-yl]urea]	2.2 μm
O=C(Nc1nc2c(s1)CN(c1nc(C3CCC(F)(F)C3)no1)CC2)N[C@H]1C[C@H](O)C1 (stereo partly drawn) [Example 35, N-{5-[3-(3,3-difluorocyclopentyl)-1,2,4-oxadiazol-5-yl]-4,5,6,7-tetrahydro[1,3]thiazolo[5,4-c]pyridin-2-yl}-N′-[(1r,3r)-3-hydroxycyclobutyl]urea]	1 μm
CC(C)(O)CNC(=O)Nc1nc2c(s1)CN(c1nc(C3(C(F)(F)F)CC3)no1)CC2 [Example 92, N-(2-hydroxy-2-methylpropyl)-N′-(5-{3-[1-(trifluoromethyl)cyclopropyl]-1,2,4-oxadiazol-5-yl}-4,5,6,7-tetrahydro[1,3]thiazolo[5,4-c]pyridin-2-yl)urea]	3.5 μm
COc1cccc(-c2noc(N3CCc4nc(NC(=O)NC5CCOCC5)sc4C3)n2)c1 [Example 108, N-{5-[3-(3-methoxyphenyl)-1,2,4-oxadiazol-5-yl]-4,5,6,7-tetrahydro[1,3]thiazolo[5,4-c]pyridin-2-yl}-N′-oxan-4-ylurea]	2.4 μm
O=C(Nc1nc2c(s1)[C@@H]1COC[C@H](C2)N1c1nc2cc(Cl)ccc2o1)N[C@H]1CC[C@H](O)CC1 [Example 149, N-[(4S,8S)-10-(5-chloro-1,3-benzoxazol-2-yl)-4,7,8,9-tetrahydro-5H-4,8-epiminooxocino[5,4-d] [1,3]thiazol-2-yl]-N′-[(1r,4r)-4-hydroxycyclohexyl]urea]	0.45 μm
O=C(Nc1nc2c(s1)C1COCC(C2)N1c1nc(-c2ccc(F)cc2)no1)N[C@H]1C[C@H](CO)C1 (stereo partly drawn) [Example 84, N-{10-[3-(4-fluorophenyl)-1,2,4-oxadiazol-5-yl]-4,7,8,9-tetrahydro-5H-4,8-epiminooxocino[5,4-d][1,3]thiazol-2-yl}-N′-[(1r,3r)-3-(hydroxymethyl)cyclobutyl]urea]	0.62 μm
CC(C)(CO)NC(=O)Nc1nc2c(s1)[C@@H]1COC[C@H](C2)N1c1nc(-c2ccc(F)cc2)no1 [Example 90, N-{(4S,8S)-10-[3-(4-fluorophenyl)-1,2,4-oxadiazol-5-yl]-4,7,8,9-tetrahydro-5H-4,8-epiminooxocino[5,4-d][1,3]thiazol-2-yl}-N′-(1-hydroxy-2-methylpropan-2-yl)urea]	2.5 μm
